Among the data in ChEMBL document CHEMBL1828585, “Reverse fosmidomycin derivatives against the antimalarial drug target IspC (Dxr)” (J Med Chem, 2011) are IC50, Survival and Activity values, retold here.

Assay [1] can be described thus: Inhibition of Plasmodium falciparum IspC.
For a further assay, the system named is MRC5. Kind of assay: Cytotoxicity against human MRC5 cells. The format is cell-based.
The test system of assay [2] is Plasmodium berghei. As to the kind of experiment: Antimalarial activity against Plasmodium berghei ANKA infected in Swiss mouse assessed as survival at 40 mg/kg, ip bid for 5 days coadministered with ritonavir 10 mg/kg, po.
For a further assay, the system named is Plasmodium falciparum. As to the kind of experiment: Antimicrobial activity against chloroquine-resistant Plasmodium falciparum K1 infected in human erythrocytes assessed as inhibition of parasite replication. The format is functional, organism-based.
In assay [3] the test system is Plasmodium berghei. Kind of assay: Antimalarial activity against Plasmodium berghei ANKA infected in Swiss mouse assessed as suppression of infected RBC at 40 mg/kg, ip bid for 5 days coadministered with ritonavir 10 mg/kg, po. Format: functional.
The test system of assay [4] is Plasmodium berghei. As to the kind of experiment: Antimalarial activity against Plasmodium berghei ANKA infected in Swiss mouse assessed as suppression of infected RBC at 10 mg/kg, ip qd for 5 days coadministered with ritonavir 10 mg/kg, po measured on day 4. The format is functional.
The test system of assay [5] is Plasmodium berghei. Kind of assay: Antimalarial activity against Plasmodium berghei ANKA infected in Swiss mouse assessed as survival at 10 mg/kg, ip qd for 5 days coadministered with ritonavir 10 mg/kg, po.
Assay [6] is described as follows: Inhibition of Escherichia coli IspC.
The mark [7] stands for this setting: Plasmodium falciparum, K1, read-out: IC50.

Active and inactive are the calls of the source. The calls are words filed in the database; no cut-off is given here.

As usually defined, the IC50 is the concentration that inhibits the measured activity by half. On to `CN(O)C(=O)CCC(c1ccc(F)c(F)c1)P(=O)(O)O` (centres undefined), for which the half-inhibitory concentration (IC50) was 3 nM in assay [1] (read-out: IC50), greater than 64000 nM in the assay with MRC5 and 290 nM with Plasmodium falciparum (setting [7]). In the assay with Plasmodium berghei [2], the Survival entry was “inactive”. Further, the Activity in the assay with Plasmodium berghei [3] was determined as 78%.

Regarding `CCN(CC)CCCC(C)Nc1ccnc2cc(Cl)ccc12` (centres undefined) [CHLOROQUINE], the Activity in the assay on Plasmodium berghei [4] was determined as 98%. Further, the Survival entry in the assay with Plasmodium berghei [5] is “Active”.

For `O=C(CCC(c1ccc(F)c(F)c1)P(=O)(O)O)NO` (centres undefined), the IC50 was 3 nM in assay [1] (read-out: IC50), greater than 64000 nM with MRC5, 210 nM in assay [6] (read-out: IC50) and 380 nM in the assay with Plasmodium falciparum (setting [7]). For the same compound, the Survival entry with Plasmodium berghei [2] is “Active”. Besides, in the assay with Plasmodium berghei [3], the Activity is reported as 89%.

Consider `CC(C)N(O)C(=O)CCC(c1ccccc1)P(=O)(O)O` (centres undefined), for which the IC50 entry in assay [1] was “Not Active”; in the assay on MRC5 it was greater than 64000 nM; in assay [6], “Not Active”; with Plasmodium falciparum it was “Not Active”.

As to `CCN(O)C(=O)CCC(c1ccccc1)P(=O)(O)O` (centres undefined), the IC50 in assay [1] (read-out: IC50) was 15 nM; in the assay with MRC5, greater than 64000 nM; in assay [6] (read-out: IC50), 15000 nM; with Plasmodium falciparum (setting [7]) it was 1300 nM.

As for `CN(O)C(=O)CCC(c1ccc(Cl)c(Cl)c1)P(=O)(O)O` (centres undefined), the IC50 in assay [1] (read-out: IC50) is 4 nM; in the assay on MRC5 it was greater than 64000 nM; in assay [6] (read-out: IC50) it was 290 nM; in the assay with Plasmodium falciparum (setting [7]), 410 nM.

As for `CN(O)C(=O)CCC(c1cccc2ccccc12)P(=O)(O)O` (centres undefined), the IC50 in assay [1] (read-out: IC50) was 9 nM; with MRC5, greater than 62000 nM; in assay [6] (read-out: IC50), 3800 nM; with Plasmodium falciparum (setting [7]) it was 970 nM.

`O=CN(O)CCCP(=O)(O)O` [FOSMIDOMYCIN]: the half-inhibitory concentration (IC50) in assay [1] (read-out: IC50) is 140 nM; with MRC5, greater than 62000 nM; in assay [6] (read-out: IC50), 220 nM; in the assay with Plasmodium falciparum (setting [7]), 3700 nM. The Survival entry in the assay on Plasmodium berghei [2] is “Active”. For the same compound, the Activity in the assay on Plasmodium berghei [3] is given as 92%.

For the compound `O=C(CCC(c1cccc2ccccc12)P(=O)(O)O)NO` (centres undefined), the half-maximal inhibitory concentration (IC50) in assay [1] (read-out: IC50) was 37 nM; in the assay with MRC5, greater than 64000 nM; in assay [6] (read-out: IC50) it was 7400 nM; in the assay with Plasmodium falciparum (setting [7]), 2400 nM.
